*1 amine or outer side, *2 acyl side, *3 side chain or, on linkers, in order; H or OH if unused. Where a SMILES comes first, the peptide text is derived from it. The star is where a group is joined. C20 diacid = O=C(O)CCCCCCCCCCCCCCCCCCC(=O)*; γGlu = O=C(O)[C@H](CCC(=O)[*:2])N[*:1]
Columns and labels:
[1] = background statement; cited from earlier work
[2] = target: T1, human amylin receptors (Homo sapiens, UniProt O60896+P30988); assay: Luciferase assay of amylin (amylin receptor/CRE-luc cell line); type: cell-based; settings: stably transfected amylin receptor/CRE-luc CHO cells (CHO-K1/Gal5/AMY3), 24 hours incubation, luciferase readout;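 also: agonist potency from luminescence of cAMP response element-driven luciferase, EC50 derived from a standard curve of signal versus compound concentration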
T1 sequence (P30988 25-474): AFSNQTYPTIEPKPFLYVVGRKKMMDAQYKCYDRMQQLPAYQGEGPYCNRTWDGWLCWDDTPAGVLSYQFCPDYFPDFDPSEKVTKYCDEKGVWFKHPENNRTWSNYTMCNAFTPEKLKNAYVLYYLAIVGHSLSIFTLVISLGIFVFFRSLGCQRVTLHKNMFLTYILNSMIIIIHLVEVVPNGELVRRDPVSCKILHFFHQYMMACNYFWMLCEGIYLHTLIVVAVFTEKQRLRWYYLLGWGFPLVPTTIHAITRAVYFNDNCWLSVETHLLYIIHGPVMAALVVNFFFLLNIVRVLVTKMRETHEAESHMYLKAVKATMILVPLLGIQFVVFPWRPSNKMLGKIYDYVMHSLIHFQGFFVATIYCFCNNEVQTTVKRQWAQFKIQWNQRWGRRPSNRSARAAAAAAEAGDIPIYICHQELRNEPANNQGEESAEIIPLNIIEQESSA
T1 sequence (O60896 24-148 partner): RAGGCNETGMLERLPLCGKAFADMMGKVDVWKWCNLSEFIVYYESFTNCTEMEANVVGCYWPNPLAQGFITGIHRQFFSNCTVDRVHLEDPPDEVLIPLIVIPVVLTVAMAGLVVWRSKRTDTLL

[3] = Heat accelerated stability assay under a neutral condition; type: physicochemical; settings: pH about 7.4, 40°C
Procedure, shortened: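 Peptide (1 mg/mL) with sodium dihydrogen phosphate (1.42 mg/mL) in water, pH ~7.4, was sterile-filtered and stored at 40 °C, sampled on days 7 and 26. After centrifugation, concentration and purity (target/total peak area) were measured by reversed-phase HPLC at 214 and 280 nm, water/0.05% TFA to acetonitrile gradient, 25 °C column.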

[4] = Heat accelerated stability assay for compatibility testing (M8 with M51); type: physicochemical; settings: M8 1 mg/ml with M51 1 mg/ml, pH about 7.4, one-month heat accelerated assay, without and with excipients (phenol, 1,2-dihydroxypropane)
Protocol: The calcitonin analogue M8 (1 mg/ml), the GLP-1 receptor agonist M51 (1 mg/ml), and sodium dihydrogen phosphate (1.42 mg/ml) were mixed and dissolved in ultrapure water, and 5.5 mg/ml phenol and 14 mg/ml 1,2-dihydroxypropane were further added for the testing group with excipients. After pH was adjusted to about 7.4 with hydrochloric acid/sodium hydroxide, accelerated stability assays were performed according to the method of Example 3. […] Thus, they had the potential to be developed as a co-formulation.

[5] = Study of weight change and food consumption in rats; type: in vivo, SD (Sprague Dawley) rats; settings: SD rats, subcutaneous, 10 nmol/kg
Source text: SD (Sprague Dawley) rats weighing 200-250 g were used for this study. The rats were received at least 10-14 days before the study began such that they could accommodate to the experimental environment. After arrival, they were exposed to a reversed light/dark cycle (i.e., lights switched off in daytime and on in nighttime) for two weeks and were individually housed for the first week so as to ensure high data accuracy and test sensitivity. Throughout the acclimation and experiment period, the rats had free access to food and water. 5-8 rats were assigned to each testing group for the derivatives and were subcutaneously administered the derivatives at a dose of 10 nmol/kg or a vehicle, and the dosing timepoint was recorded for each group. After dosing, the rats were put back into cages where they were housed and could have access to food and water. Food consumption and weight change of the rats were recorded online or manually every 24 hours.

## CC(C)C[C@H](NC(=O)[C@H](CCCCN)NC(=O)CNC(=O)[C@H](CC(C)C)NC(=O)[C@@H](NC(=O)[C@@H]1CSSC[C@H](N)C(=O)N[C@@H](CO)C(=O)N[C@@H](CC(N)=O)C(=O)N[C@@H](CC(C)C)C(=O)N[C@@H](CO)C(=O)N[C@@H]([C@@H](C)O)C(=O)N1)C(C)C)C(=O)N[C@@H](CO)C(=O)N[C@@H](CCC(N)=O)C(=O)N[C@@H](CCC(=O)O)C(=O)N[C@@H](CC(C)C)C(=O)N[C@@H](Cc1c[nH]cn1)C(=O)N[C@@H](CCCCN)C(=O)N[C@@H](CC(C)C)C(=O)N[C@@H](CCC(N)=O)C(=O)N[C@H](C(=O)N[C@@H](Cc1ccc(O)cc1)C(=O)N1CCC[C@H]1C(=O)N[C@@H](CCCNC(=N)N)C(=O)N[C@H](C(=O)N[C@@H](CC(N)=O)C(=O)N[C@H](C(=O)NCC(=O)N[C@@H](CO)C(=O)NCC(=O)N[C@H](C(=O)N1CCC[C@H]1C(N)=O)[C@@H](C)O)[C@@H](C)O)[C@@H](C)O)[C@@H](C)O [D2, salmon calcitonin]
[1]
  half-life: less than two hours

## CC(C)C[C@H](NC(=O)[C@H](CCCNC(=N)N)NC(=O)CNC(=O)[C@H](CC(C)C)NC(=O)[C@@H](NC(=O)[C@H](C)NC(=O)[C@@H](NC(=O)[C@H](CO)NC(=O)[C@H](CC(C)C)NC(=O)[C@H](CCC(N)=O)NC(=O)[C@H](CO)NC(=O)[C@H](C)NC(=O)CC[C@H](NC(=O)CCCCCCCCCCCCCCCCCCC(=O)O)C(=O)O)[C@@H](C)O)C(C)C)C(=O)N[C@@H](CO)C(=O)N[C@@H](CC(=O)O)C(=O)N[C@@H](CCC(=O)O)C(=O)N[C@@H](CC(C)C)C(=O)N[C@@H](Cc1c[nH]cn1)C(=O)N[C@@H](CCCNC(=N)N)C(=O)N[C@@H](CC(C)C)C(=O)N[C@@H](CCC(N)=O)C(=O)N[C@@H](CC(=O)O)C(=O)N[C@@H](Cc1ccc(O)cc1)C(=O)N1CCC[C@H]1C(=O)N[C@@H](CCCNC(=N)N)C(=O)N[C@H](C(=O)N[C@@H](CC(=O)O)C(=O)N[C@H](C(=O)NCC(=O)N[C@@H](CO)C(=O)NCC(=O)N[C@@H](CO)C(=O)N1CCC[C@H]1C(N)=O)C(C)C)[C@@H](C)O [M8] ({C20 diacid-γGlu}-ASQLSTAVLGRLSDELHRLQDYPRTDVGSGSP-NH2)
[2]
  EC50: 0.017 nM
[3]; 1 mg/mL, phosphate, 0d
  Changes in characteristics or properties, 0d: Clear
[3]; 1 mg/mL, phosphate, 7d
  Changes in characteristics or properties, 7d: Clear
[3]; 1 mg/mL, phosphate, Day 26
  Characteristics or properties on Day 26: clear solution
[3]; Table 8, purity change, 7d
  Reversed phase chromatography 7d change: No change (a decrease of less than 1% from the initial value to the detected content is denoted as "no change")
[3]; Table 8, purity change, 26d
  Reversed phase chromatography 26d change: -0.12%
[3]; Day 26 vs Day 0
  Concentration change on Day 26 as compared to Day 0: less than 2%
[3]; purity from reversed phase chromatography-214 nm, Day 7 vs Day 0
  Purity Change% (7d-0d): No change (a decrease of less than 1% from the initial value to the detected content is denoted as "no change")
[4]
  Change in the spectra of reversed phase chromatography (compatibility): only a little change
[5]; accumulated food intake recorded every 24 hours (FIGs. 7 and 9)
  Effect on reducing food intake: prominent effect
[5]; recorded every 24 hours (FIGs. 6 and 8)
  Effect on reducing body weight: prominent effect
